Experimental data taken from patent US20190233884A1 (University of Southern California, priority 2016, published 2019).

System: patients with refractory metastatic colorectal cancer (mCRC)
Assay: PFS, OS and disease control in the testing (validation) cohort of refractory mCRC patients receiving TAS-102 (n=129, Italy), by baseline characteristics, SNP genotype and toxicity
Type: in vivo, human
Conditions: for OS HR (95% CI)‡ / PFS HR (95% CI) ‡: multivariable; for Disease Control Rate: PD / Disease Control Rate: SD: patients, n (%); for Disease Control Rate PD / Disease Control Rate SD / Overall Survival Median, months (95% CI) / Progression-free Survival Median, months (95% CI) / Overall Survival HR (95% CI) multivariate / Overall Survival HR (95% CI) univariate / Progression-free Survival HR (95% CI) multivariate / Progression-free Survival HR (95% CI) univariate / OS / PFS: testing cohort
Protocol: All patients underwent the treatment in salvage-line setting. […]
(§1) Genomic DNA was extracted from peripheral whole blood in patients of all cohorts using the QIAmp Kit (Qiagen, Valencia, Calif., USA) according to the manufacturer's protocol (www.qiagen.com). The candidate SNPs were genotyped using PCR-based direct DNA sequence analysis by ABI 3100A Capillary Genetic Analyzer and Sequencing Scanner v1.0 (Applied Biosystems). Amplification of extracted DNA was carried out using both forward and reverse primers for each gene polymorphism as shown in Table 1. […] The investigators analyzing SNPs were blinded to the clinical data of the study patients.
The primary endpoint in this study was progression-free survival (PFS), and the secondary endpoints were overall survival (OS) and disease control rate (DCR). PFS was calculated from the date of starting treatment to the first observation of disease progression or death from any cause. If a patient had no disease progression or death, PFS was censored at the date of last follow up. OS was calculated from the date of starting treatment until the date of death from any cause or the date of the last follow-up, at which point OS was censored. The disease control rate (DCR) was defined as the proportion of patients who achieved a stable disease (SD) or […] according to RECISTv1.1. Chi-square test was used to examine the difference in baseline patient characteristics among the three cohorts. Allelic distribution of all SNPs by ethnicity for deviation from Hardy-Weinberg equilibrium and the allelic frequencies of SNPs were tested using the Chi-square tests with one degree of freedom. The associations between candidate SNPs and disease control, and toxicities were examined using contingency tables and Fisher's exact test. The associations of SNPs with PFS and OS were analysed using Kaplan-Meier curves and the log-rank test. Because the true mode of inheritance of candidate SNPs was not established yet, a codominant or dominant genetic model if appropriate was considered.
All patients underwent the treatment in salvage-line setting. […] In all patients, adverse events were graded according to the Common Terminology Criteria for Adverse Events, version 4.0. […]
as §1, with “tested” for “genotyped”, “Biosystems).” for “Biosystems). Amplification of extracted DNA was carried out using both forward and reverse primers for each gene polymorphism as shown in Table 1.”, “data.” for “data of the study patients.”
The primary endpoint in this study was progression-free survival (PFS), and the secondary endpoints were overall survival (OS) and disease control rate (DCR).

[1] = ATR rs2227928 A/A vs G/G, univariate
[2] = ATR rs2227928 Any A vs G/G, univariate
[3] = ATR rs2227928 G/A vs G/G, univariate
[4] = Pin1 rs2233678 G/C and C/C grouped together
[5] = Pin1 rs2233678 G/C and C/C grouped vs G/G
[6] = Pin1 rs2233678 G/C and C/C grouped vs G/G, univariate
[7] = Validation cohort, Neutropenia grade <3
[8] = Validation cohort, Neutropenia grade ≥3 vs <3, univariate
[9] = hENT1 + OCT2/MATE1 classification: Fair
[10] = hENT1 + OCT2/MATE1 classification: Good or Excellent
[11] = hENT1 + OCT2/MATE1 classification: Poor

Trifluridine/tipiracil [TAS-102]
PFS median, months (95% CI) (ATR rs2227928 A/A): 2.4 months
OS HR (95% CI)‡ (ATR rs2227928 A/A vs G/G): 1.32
PFS HR (95% CI) ‡ (ATR rs2227928 A/A vs G/G): 1.03
OS HR (95% CI)† [1]: 0.94
PFS HR (95% CI) † [1]: 0.79
Disease Control Rate: PD (ATR rs2227928 A/A): 14 (56%)
Disease Control Rate: SD (ATR rs2227928 A/A): 11 (44%)
OS median, months (95% CI) (ATR rs2227928 Any A): 5.5 months
PFS median, months (95% CI) (ATR rs2227928 Any A): 2.0 months
OS HR (95% CI)‡ (ATR rs2227928 Any A vs G/G): 1.35
PFS HR (95% CI) ‡ (ATR rs2227928 Any A vs G/G): 1.33
OS HR (95% CI)† [2]: 1.12
PFS HR (95% CI) † [2]: 1.11
Disease Control Rate: PD (ATR rs2227928 Any A): 64 (72%)
Disease Control Rate: SD (ATR rs2227928 Any A): 25 (28%)
OS median, months (95% CI) (ATR rs2227928 G/A): 5.4 months
PFS median, months (95% CI) (ATR rs2227928 G/A): 2.0 months
OS HR (95% CI)‡ (ATR rs2227928 G/A vs G/G): 1.36
PFS HR (95% CI) ‡ (ATR rs2227928 G/A vs G/G): 1.45
OS HR (95% CI)† [3]: 1.20
PFS HR (95% CI) † [3]: 1.26
Disease Control Rate: PD (ATR rs2227928 G/A): 50 (78%)
Disease Control Rate: SD (ATR rs2227928 G/A): 14 (22%)
PFS median, months (95% CI) (ATR rs2227928 G/G): 2.1 months
Disease Control Rate: PD (ATR rs2227928 G/G): 27 (69%)
Disease Control Rate: SD (ATR rs2227928 G/G): 12 (31%)
OS median, months (95% CI) [4]: 5.4 months
PFS median, months (95% CI) [4]: 2.0 months
Disease Control Rate: PD [4]: 26 (70%)
Disease Control Rate: SD [4]: 11 (30%)
OS HR (95% CI)‡ [5]: 0.97
PFS HR (95% CI) ‡ [5]: 1.18
OS HR (95% CI)† [6]: 0.91
PFS HR (95% CI) † [6]: 1.00
OS median, months (95% CI) (Pin1 rs2233678 G/G): 5.8 months
PFS median, months (95% CI) (Pin1 rs2233678 G/G): 2.0 months
Disease Control Rate: PD (Pin1 rs2233678 G/G): 65 (71%)
Disease Control Rate: SD (Pin1 rs2233678 G/G): 26 (29%)
OS median, months (95% CI) [7]: 3.7 (3.3, 5.1) months
PFS median, months (95% CI) [7]: 1.9 (1.7, 1.9) months
PFS median, months (95% CI) (Validation cohort, Neutropenia grade ≥3): 2.3 (2.0, 3.7) months
OS HR (95% CI) [8]: 0.21 (0.10, 0.44)
PFS HR (95% CI) [8]: 0.50 (0.32, 0.77)
Disease Control Rate PD (MATE1_OCT019 Good): 63 (70%)
Disease Control Rate SD (MATE1_OCT019 Good): 27 (30%)
Overall Survival Median, months (95% CI) (MATE1_OCT019 Good): 5.4 (4.1, 9.0+) months
Progression-free Survival Median, months (95% CI) (MATE1_OCT019 Good): 2.0 (1.9, 2.3) months
Overall Survival HR (95% CI) multivariate (MATE1_OCT019 Good vs Poor): 1.12 (0.59, 2.10)
Overall Survival HR (95% CI) univariate (MATE1_OCT019 Good vs Poor): 1.18 (0.64, 2.17)
Progression-free Survival HR (95% CI) multivariate (MATE1_OCT019 Good vs Poor): 0.91 (0.59, 1.42)
Progression-free Survival HR (95% CI) univariate (MATE1_OCT019 Good vs Poor): 0.94 (0.62, 1.43)
Disease Control Rate PD (MATE1_OCT019 Poor): 28 (74%)
Disease Control Rate SD (MATE1_OCT019 Poor): 10 (26%)
Progression-free Survival Median, months (95% CI) (MATE1_OCT019 Poor): 2.0 (1.8, 2.1) months
Disease Control Rate PD (MATE1 rs2289659 A/A): 20 (74%)
Disease Control Rate SD (MATE1 rs2289659 A/A): 7 (26%)
Progression-free Survival Median, months (95% CI) (MATE1 rs2289659 A/A): 2.0 (1.7, 2.3) months
Overall Survival HR (95% CI) multivariate (MATE1 rs2289659 A/A vs G/G): 1.42 (0.61, 3.32)
Overall Survival HR (95% CI) univariate (MATE1 rs2289659 A/A vs G/G): 1.13 (0.50, 2.58)
Progression-free Survival HR (95% CI) multivariate (MATE1 rs2289659 A/A vs G/G): 1.11 (0.63, 1.96)
Progression-free Survival HR (95% CI) univariate (MATE1 rs2289659 A/A vs G/G): 1.01 (0.58, 1.74)
Disease Control Rate PD (MATE1 rs2289659 Any A): 64 (70%)
Disease Control Rate SD (MATE1 rs2289659 Any A): 27 (30%)
Overall Survival Median, months (95% CI) (MATE1 rs2289659 Any A): 5.3 (3.9, 8.8+) months
Progression-free Survival Median, months (95% CI) (MATE1 rs2289659 Any A): 2.0 (1.9, 2.1) months
Overall Survival HR (95% CI) multivariate (MATE1 rs2289659 Any A vs G/G): 1.60 (0.85, 3.04)
Overall Survival HR (95% CI) univariate (MATE1 rs2289659 Any A vs G/G): 1.42 (0.76, 2.64)
Progression-free Survival HR (95% CI) multivariate (MATE1 rs2289659 Any A vs G/G): 1.14 (0.74, 1.75)
Progression-free Survival HR (95% CI) univariate (MATE1 rs2289659 Any A vs G/G): 1.03 (0.68, 1.58)
Disease Control Rate PD (MATE1 rs2289659 G/A): 44 (69%)
Disease Control Rate SD (MATE1 rs2289659 G/A): 20 (31%)
Overall Survival Median, months (95% CI) (MATE1 rs2289659 G/A): 4.6 (3.7, 8.8+) months
Progression-free Survival Median, months (95% CI) (MATE1 rs2289659 G/A): 2.0 (1.8, 2.3) months
Overall Survival HR (95% CI) multivariate (MATE1 rs2289659 G/A vs G/G): 1.67 (0.56, 3.25)
Overall Survival HR (95% CI) univariate (MATE1 rs2289659 G/A vs G/G): 1.55 (0.81, 2.96)
Progression-free Survival HR (95% CI) multivariate (MATE1 rs2289659 G/A vs G/G): 1.15 (0.73, 1.53)
Progression-free Survival HR (95% CI) univariate (MATE1 rs2289659 G/A vs G/G): 1.04 (0.66, 1.64)
Disease Control Rate PD (MATE1 rs2289659 G/G): 27 (73%)
Disease Control Rate SD (MATE1 rs2289659 G/G): 10 (27%)
Overall Survival Median, months (95% CI) (MATE1 rs2289659 G/G): 9.0 (4.4, 9.0+) months
Progression-free Survival Median, months (95% CI) (MATE1 rs2289659 G/G): 1.9 (1.9, 2.4) months
Disease Control Rate PD (OCT2 rs316019 C/A): 21 (68%)
Disease Control Rate SD (OCT2 rs316019 C/A): 10 (32%)
Overall Survival Median, months (95% CI) (OCT2 rs316019 C/A): 4.6 (3.6, 7.1+) months
Progression-free Survival Median, months (95% CI) (OCT2 rs316019 C/A): 1.9 (1.7, 2.4) months
Overall Survival HR (95% CI) multivariate (OCT2 rs316019 C/A vs C/C): 1.00 (0.53, 1.89)
Overall Survival HR (95% CI) univariate (OCT2 rs316019 C/A vs C/C): 1.19 (0.64, 2.19)
Progression-free Survival HR (95% CI) multivariate (OCT2 rs316019 C/A vs C/C): 1.28 (0.79, 2.07)
Progression-free Survival HR (95% CI) univariate (OCT2 rs316019 C/A vs C/C): 1.12 (0.72, 1.76)
Disease Control Rate PD (OCT2 rs316019 C/C): 70 (72%)
Disease Control Rate SD (OCT2 rs316019 C/C): 27 (28%)
Overall Survival Median, months (95% CI) (OCT2 rs316019 C/C): 5.5 (4.7, 9.0+) months
Progression-free Survival Median, months (95% CI) (OCT2 rs316019 C/C): 2.0 (1.9, 2.3) months
Overall Survival HR (95% CI) multivariate (adjusted for age group, liver metastasis, ECOG performance status, previous anti-EGFR, OCT2 rs316000 A/G vs A/A): 0.66 (0.36, 1.23)
Overall Survival HR (95% CI) multivariate (adjusted for age group, liver metastasis, ECOG performance status, previous anti-EGFR, OCT2 rs316000 Any G vs A/A): 0.66 (0.36, 1.21)
Overall Survival HR (95% CI) multivariate (adjusted for age group, liver metastasis, ECOG performance status, previous anti-EGFR, OCT2 rs316000 G/G vs A/A): 0.64 (0.08, 4.91)
Overall Survival HR (95% CI) univariate (genotype vs A/A, OCT2 rs316000 A/G vs A/A): 0.87 (0.48, 1.57)
Overall Survival HR (95% CI) univariate (genotype vs A/A, OCT2 rs316000 Any G vs A/A): 0.83 (0.46, 1.47)
Overall Survival HR (95% CI) univariate (genotype vs A/A, OCT2 rs316000 G/G vs A/A): 0.45 (0.06, 3.28)
OS [9]: 4.0 months
PFS [9]: 1.9 months
OS [10]: 9.0 months
PFS [10]: 2.1 months
OS [11]: 3.6 months
PFS [11]: 2.0 months
Disease Control Rate PD (hENT1 rs750370 A/A): 36 (80%)
